Test system: Dictyostelium discoideum AX2 strain cells
Assay: Cell penetration into Dictyostelium amoeba cells, fluorescence microscopy of fixed cells
Assay type: cell-based
Conditions: 10 µM, 60 min in buffer, washed 3 times, fixed with Fluorsave, green fluorescent filter; GFP proteins denatured, non-fluorescent when added
Procedure: Dictyostelium discoideum AX2 strain cells were grown on Klebsiella aerogenes plates. For experimentation, cells at the growth zone were collected and washed 5 times with 10 mM potassium phosphate buffer, pH 7.2 and seeded in slide chambers at a density of 10^5 cells/mL. Cells were incubated with FITC-labelled Cupid, Cupid-GFP or H-GFP at the doses indicated for 60 min, washed 3 times in buffer and fixed in situ using Fluorsave (Calbiochem, UK) under a coverslip. Cell microscopy was performed on an upright fluorescence microscope (Olympus BX61) with the green fluorescent filter set, coupled with a digital camera.

## RRVQIWFQNKRAKVKR [F-Cupid]
  cells become fluorescent (cell-penetrating capability): caused the cells to become fluorescent

## fluorescein-labelled BSA: fluorescein-labelled BSA control (data not shown)
  cells become fluorescent (cell-penetrating capability): did not

Reference: paper PMC7426420, “Cupid, a cell permeable peptide derived from amoeba, capable of delivering GFP into a diverse range of species” (Scientific Reports, 2020)
